Test results: article PMC6407917, “Identification of GSK3186899/DDD853651 as a Preclinical Development Candidate for the Treatment of Visceral Leishmaniasis” (Journal of Medicinal Chemistry, 2018)

How the values were obtained:
Assay in all cases: biochemical
Parameters in all cases: species or system HEK293/K-562/placenta mixed human extract; Kinobeads chemoproteomic competition binding, quantified by TMT LC-MS/MS, dose response up to 20 uM
CAMK4 = CAMK4 (Homo sapiens, UniProt Q16566)
BMPR1A = BMPR1A (Homo sapiens, UniProt P36894)
TBK1 = TBK1 (Homo sapiens, UniProt Q9UHD2)
MASTL = MASTL (Homo sapiens, UniProt Q96GX5)
GSK3A = GSK3A (Homo sapiens, UniProt P49840)
PIM1 = PIM1 (Homo sapiens, UniProt P11309)
PIM3 = PIM3 (Homo sapiens, UniProt Q86V86)
EGFR = EGFR (Homo sapiens, UniProt P00533)
ARAF = ARAF (Homo sapiens, UniProt P10398)
PLK4 = PLK4 (Homo sapiens, UniProt O00444)
FLT4 = FLT4 (Homo sapiens, UniProt P35916)
CDC42BPB = CDC42BPB (Homo sapiens, UniProt Q9Y5S2)
MAP3K6 = MAP3K6 (Homo sapiens, UniProt O95382)
RIOK2 = RIOK2 (Homo sapiens, UniProt Q9BVS4)
STK17A = STK17A (Homo sapiens, UniProt Q9UEE5)
PAK6 = PAK6 (Homo sapiens, UniProt Q9NQU5)
NEK3 = NEK3 (Homo sapiens, UniProt P51956)
SERPINB2 = SERPINB2 (Homo sapiens, UniProt P05120)
BRAF = BRAF (Homo sapiens, UniProt P15056)
HCK = HCK (Homo sapiens, UniProt P08631)
DAPK3 = DAPK3 (Homo sapiens, UniProt O43293)

Measured: IC50

Chain of DAPK3 (O43293 whole entry): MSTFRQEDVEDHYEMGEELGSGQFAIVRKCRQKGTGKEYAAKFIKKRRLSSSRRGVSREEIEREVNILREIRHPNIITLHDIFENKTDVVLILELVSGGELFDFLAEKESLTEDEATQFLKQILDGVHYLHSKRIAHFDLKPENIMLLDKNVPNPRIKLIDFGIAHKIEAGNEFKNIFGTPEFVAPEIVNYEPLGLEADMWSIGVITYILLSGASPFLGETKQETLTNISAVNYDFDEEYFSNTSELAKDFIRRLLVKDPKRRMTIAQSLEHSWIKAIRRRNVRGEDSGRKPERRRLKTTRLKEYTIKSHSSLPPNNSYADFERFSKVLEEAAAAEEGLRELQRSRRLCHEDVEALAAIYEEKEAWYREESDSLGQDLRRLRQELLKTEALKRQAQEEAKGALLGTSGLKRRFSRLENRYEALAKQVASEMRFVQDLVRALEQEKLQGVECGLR
Chain of CAMK4 (Q16566 whole entry): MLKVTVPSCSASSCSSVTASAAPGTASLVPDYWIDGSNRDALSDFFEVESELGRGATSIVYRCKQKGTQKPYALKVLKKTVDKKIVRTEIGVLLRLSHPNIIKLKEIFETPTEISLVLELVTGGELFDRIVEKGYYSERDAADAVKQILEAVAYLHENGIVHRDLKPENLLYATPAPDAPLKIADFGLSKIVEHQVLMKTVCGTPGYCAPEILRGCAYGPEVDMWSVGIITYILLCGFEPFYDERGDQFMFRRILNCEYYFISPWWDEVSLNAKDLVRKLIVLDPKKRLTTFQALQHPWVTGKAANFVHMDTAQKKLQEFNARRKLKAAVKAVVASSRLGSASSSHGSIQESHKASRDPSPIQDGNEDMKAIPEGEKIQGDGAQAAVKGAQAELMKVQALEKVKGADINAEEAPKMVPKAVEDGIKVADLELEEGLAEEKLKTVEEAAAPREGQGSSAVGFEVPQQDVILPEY
Chain of FLT4 (P35916 whole entry): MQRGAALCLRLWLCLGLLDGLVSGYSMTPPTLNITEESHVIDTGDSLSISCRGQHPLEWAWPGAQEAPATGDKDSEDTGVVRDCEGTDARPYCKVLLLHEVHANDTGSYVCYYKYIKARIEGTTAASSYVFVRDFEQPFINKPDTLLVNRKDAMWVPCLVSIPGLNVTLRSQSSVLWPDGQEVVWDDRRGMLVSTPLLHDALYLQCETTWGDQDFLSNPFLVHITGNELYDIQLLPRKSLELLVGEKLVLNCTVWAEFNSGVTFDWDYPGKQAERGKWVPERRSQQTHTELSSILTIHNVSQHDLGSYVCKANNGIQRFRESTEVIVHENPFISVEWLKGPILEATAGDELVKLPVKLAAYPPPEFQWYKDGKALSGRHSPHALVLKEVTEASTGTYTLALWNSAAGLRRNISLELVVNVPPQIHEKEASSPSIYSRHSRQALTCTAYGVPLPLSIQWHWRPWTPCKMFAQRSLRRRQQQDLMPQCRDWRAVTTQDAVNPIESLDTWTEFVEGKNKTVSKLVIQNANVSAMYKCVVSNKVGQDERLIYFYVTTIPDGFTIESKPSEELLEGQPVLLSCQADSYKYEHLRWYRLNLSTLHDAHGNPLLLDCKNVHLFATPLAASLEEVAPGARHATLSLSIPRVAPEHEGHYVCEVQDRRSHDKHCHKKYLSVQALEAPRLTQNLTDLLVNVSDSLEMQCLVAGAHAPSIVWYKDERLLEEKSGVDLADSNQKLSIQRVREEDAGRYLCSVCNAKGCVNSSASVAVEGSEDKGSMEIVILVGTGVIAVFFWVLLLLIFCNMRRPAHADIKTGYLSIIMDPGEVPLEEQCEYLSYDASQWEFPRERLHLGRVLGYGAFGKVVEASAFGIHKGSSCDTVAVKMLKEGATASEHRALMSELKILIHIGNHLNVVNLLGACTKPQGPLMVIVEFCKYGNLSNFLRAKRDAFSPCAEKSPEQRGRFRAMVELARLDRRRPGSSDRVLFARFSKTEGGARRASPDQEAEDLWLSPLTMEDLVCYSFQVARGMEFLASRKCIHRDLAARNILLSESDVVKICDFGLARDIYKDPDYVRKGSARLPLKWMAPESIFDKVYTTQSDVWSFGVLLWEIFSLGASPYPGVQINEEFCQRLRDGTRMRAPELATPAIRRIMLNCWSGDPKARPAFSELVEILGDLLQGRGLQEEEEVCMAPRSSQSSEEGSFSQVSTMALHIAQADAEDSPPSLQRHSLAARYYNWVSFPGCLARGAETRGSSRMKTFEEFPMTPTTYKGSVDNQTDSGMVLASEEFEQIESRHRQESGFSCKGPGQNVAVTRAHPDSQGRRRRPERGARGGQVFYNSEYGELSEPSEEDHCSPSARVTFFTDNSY
Chain of PIM1 (P11309 whole entry): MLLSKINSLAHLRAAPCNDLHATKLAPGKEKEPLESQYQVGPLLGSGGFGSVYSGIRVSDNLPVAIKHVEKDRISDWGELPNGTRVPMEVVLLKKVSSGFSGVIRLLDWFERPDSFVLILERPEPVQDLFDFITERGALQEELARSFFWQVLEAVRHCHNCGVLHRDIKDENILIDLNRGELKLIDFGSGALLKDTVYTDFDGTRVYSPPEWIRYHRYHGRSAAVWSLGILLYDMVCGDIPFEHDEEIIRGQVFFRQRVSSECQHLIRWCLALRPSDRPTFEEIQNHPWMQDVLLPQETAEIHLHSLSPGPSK
Chain of TBK1 (Q9UHD2 whole entry): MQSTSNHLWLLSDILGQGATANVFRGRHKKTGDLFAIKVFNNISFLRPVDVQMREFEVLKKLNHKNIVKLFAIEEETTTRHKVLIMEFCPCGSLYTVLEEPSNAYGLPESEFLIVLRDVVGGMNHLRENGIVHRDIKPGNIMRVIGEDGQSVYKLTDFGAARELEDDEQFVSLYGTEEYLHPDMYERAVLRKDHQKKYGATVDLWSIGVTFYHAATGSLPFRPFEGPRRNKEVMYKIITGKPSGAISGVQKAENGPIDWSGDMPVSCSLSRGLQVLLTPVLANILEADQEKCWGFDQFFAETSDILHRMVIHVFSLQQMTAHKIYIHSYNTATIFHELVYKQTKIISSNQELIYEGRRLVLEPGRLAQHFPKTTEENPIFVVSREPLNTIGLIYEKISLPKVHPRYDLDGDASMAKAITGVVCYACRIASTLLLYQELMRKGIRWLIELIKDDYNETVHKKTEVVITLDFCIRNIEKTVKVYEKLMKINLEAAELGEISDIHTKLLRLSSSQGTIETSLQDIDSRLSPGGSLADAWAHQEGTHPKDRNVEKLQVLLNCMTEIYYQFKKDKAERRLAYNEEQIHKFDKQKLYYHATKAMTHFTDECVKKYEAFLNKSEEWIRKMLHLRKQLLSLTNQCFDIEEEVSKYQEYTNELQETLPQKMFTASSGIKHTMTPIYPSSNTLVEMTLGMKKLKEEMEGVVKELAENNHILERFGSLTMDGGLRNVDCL
Chain of PLK4 (O00444 whole entry): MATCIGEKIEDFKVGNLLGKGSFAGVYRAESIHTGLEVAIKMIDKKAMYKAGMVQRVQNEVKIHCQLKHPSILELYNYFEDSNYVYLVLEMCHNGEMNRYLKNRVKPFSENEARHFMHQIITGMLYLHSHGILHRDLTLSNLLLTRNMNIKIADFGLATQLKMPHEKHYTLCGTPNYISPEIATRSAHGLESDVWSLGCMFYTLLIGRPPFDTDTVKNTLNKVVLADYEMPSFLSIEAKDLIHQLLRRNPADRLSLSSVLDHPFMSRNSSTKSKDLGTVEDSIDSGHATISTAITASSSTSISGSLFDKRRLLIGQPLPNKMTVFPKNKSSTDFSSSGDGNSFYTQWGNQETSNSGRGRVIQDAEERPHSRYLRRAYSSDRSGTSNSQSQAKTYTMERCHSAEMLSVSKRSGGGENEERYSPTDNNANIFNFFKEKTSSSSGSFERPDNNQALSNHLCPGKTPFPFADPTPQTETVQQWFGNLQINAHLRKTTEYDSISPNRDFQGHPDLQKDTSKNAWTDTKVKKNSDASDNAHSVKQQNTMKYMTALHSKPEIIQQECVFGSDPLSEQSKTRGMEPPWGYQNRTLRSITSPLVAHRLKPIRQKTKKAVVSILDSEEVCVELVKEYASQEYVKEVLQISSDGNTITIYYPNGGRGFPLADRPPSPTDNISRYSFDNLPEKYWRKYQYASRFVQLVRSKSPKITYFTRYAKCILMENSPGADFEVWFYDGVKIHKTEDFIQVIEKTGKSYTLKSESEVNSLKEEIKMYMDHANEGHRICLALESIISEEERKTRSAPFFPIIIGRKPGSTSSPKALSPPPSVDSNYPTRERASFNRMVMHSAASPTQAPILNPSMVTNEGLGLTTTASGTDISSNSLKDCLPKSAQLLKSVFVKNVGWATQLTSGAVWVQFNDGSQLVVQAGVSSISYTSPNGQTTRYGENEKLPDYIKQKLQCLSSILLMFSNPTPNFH
Chain of HCK (P08631 whole entry): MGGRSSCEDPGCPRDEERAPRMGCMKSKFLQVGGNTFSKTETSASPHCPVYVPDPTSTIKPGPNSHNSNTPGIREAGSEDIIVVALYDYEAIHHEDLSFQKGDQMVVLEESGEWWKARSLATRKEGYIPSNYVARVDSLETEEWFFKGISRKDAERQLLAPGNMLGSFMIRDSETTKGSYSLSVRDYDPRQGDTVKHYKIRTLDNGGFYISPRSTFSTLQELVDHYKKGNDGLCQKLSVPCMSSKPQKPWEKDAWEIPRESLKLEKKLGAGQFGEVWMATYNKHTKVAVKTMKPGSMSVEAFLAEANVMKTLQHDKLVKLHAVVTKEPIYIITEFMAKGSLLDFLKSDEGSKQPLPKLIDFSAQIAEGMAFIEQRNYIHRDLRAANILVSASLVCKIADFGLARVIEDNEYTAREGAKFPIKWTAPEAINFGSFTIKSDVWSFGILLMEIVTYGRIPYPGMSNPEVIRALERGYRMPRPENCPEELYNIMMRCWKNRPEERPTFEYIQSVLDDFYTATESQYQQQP

COc1ccccc1-c1n[nH]c2nc(N[C@H]3CC[C@H](NS(=O)(=O)CCC(F)(F)F)CC3)nc(OC)c12 [compound 31, 3,3,3-Trifluoro-N-(trans-4-((4-methoxy-3-(2-methoxyphenyl)-1H-pyrazolo[3,4-d]pyrimidin-6-yl)amino)cyclohexyl)propane-1-sulfonamide]
≥ 20 µM: all assays above
